Columns and labels:
mouse iNOS = biological target: T1, mouse iNOS (Mus musculus, UniProt P29477); test: NOS inhibition, oxyhemoglobin (hemoglobin capture) test, recombinant iNOS; type: biochemical; settings: dipeptide-like series, recombinant enzyme, 20 µM arginine, triplicate, NI = <50% inhibition at 100 μM
T1 construct: Full-length recombinant rat nNOS, mouse iNOS, bovine eNOS; made in house; host or cells: Escherichia coli
T1 sequence (P29477 1-1144): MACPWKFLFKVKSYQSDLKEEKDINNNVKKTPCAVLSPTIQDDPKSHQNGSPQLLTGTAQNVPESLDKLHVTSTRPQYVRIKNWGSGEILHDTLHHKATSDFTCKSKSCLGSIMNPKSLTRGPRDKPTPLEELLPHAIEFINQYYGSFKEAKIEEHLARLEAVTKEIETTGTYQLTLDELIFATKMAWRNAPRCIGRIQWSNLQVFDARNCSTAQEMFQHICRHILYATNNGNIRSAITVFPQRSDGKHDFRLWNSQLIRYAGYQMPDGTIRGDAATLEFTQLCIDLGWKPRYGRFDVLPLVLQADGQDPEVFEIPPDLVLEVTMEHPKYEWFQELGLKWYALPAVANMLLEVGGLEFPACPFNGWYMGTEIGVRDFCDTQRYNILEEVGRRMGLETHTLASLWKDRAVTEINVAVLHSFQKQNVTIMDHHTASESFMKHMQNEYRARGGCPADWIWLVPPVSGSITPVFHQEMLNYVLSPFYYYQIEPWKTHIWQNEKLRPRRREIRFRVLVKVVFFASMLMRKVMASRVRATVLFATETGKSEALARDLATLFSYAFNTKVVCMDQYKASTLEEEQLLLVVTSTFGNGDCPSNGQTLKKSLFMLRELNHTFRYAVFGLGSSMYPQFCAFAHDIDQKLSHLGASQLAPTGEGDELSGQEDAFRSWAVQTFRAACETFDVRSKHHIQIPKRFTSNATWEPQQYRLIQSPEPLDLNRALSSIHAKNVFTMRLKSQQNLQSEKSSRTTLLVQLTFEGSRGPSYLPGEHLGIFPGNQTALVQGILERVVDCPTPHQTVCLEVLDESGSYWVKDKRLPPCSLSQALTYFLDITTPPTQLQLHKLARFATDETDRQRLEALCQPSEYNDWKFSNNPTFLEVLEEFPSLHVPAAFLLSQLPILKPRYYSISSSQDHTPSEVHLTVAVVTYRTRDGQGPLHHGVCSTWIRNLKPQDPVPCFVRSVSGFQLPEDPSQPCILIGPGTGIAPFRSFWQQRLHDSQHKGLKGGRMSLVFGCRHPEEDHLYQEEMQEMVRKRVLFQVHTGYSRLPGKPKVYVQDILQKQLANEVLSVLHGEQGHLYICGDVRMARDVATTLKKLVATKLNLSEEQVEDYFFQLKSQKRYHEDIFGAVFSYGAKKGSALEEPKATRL
Method in brief: (§1)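 Full-length E. coli-expressed recombinant enzyme; NO formation followed kinetically at 401 nm via oxyhemoglobin capture at 30 °C in 100 mM Hepes pH 7.5 with NADPH, BH4, FAD, FMN, DTT; arginine 20 µM (iNOS) or 10 µM (nNOS, plus calmodulin and CaCl2). Screened at 100 and 10 μM; IC50 if >50% inhibition at 100 μM.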

rat nNOS = biological target: T2, rat nNOS (Rattus norvegicus, UniProt P29476); test: NOS inhibition, oxyhemoglobin (hemoglobin capture) test, recombinant nNOS; type: biochemical; settings: dipeptide-like series; recombinant enzyme, 10 µM arginine, triplicate; NI = <50% inhibition at 100 μM
T2 construct: Full-length recombinant rat nNOS, mouse iNOS, bovine eNOS; made in house; host or cells: Escherichia coli
Method in brief: as §1

[1] = biological target: T3, oxygenase domain of nNOS (nNOSoxy) (Rattus norvegicus, UniProt P29476); test: UV-visible difference spectroscopy titration of nNOSoxy; type: binding; settings: UV/Vis difference spectroscopy, ± SD, three experiments; read-out: Apparent equilibrium constant Ks nNOSoxy
T3 construct: the oxygenase domain of nNOS (nNOSoxy) and iNOS (iNOSoxy); made in house; host or cells: Escherichia coli
Excerpt: We performed UV–visible difference spectroscopy to analyze the interaction mode of some inhibitors with the heme-active site of NOS [54]. We have studied the effects of dipeptide-like compounds 7, 17, 19, 23, and 27 and 1,2,4-oxadiazole 35 on the UV–visible spectra of the oxygenase domain of nNOS (nNOSoxy) and iNOS (iNOSoxy). As expected, when added stepwise to n- and iNOSoxy, all selected compounds elicited different spectra with a trough at ~425 nm and a peak at ~395 nm, similar to the substrate L-arginine. This profile is characteristic of type I interactions, meaning that they are bound in close proximity to the heme prosthetic group and shifted the spin state equilibrium to the pentacoordinated heme–Fe^III state. Double reverse plotting of the differences in absorbance between the peak at ~395 nm and valley at ~425 nm (ΔA395–425 nm) as a function of the concentration of the added compounds allowed calculating apparent binding constants (Ks) (Table 3). The reference inhibitor SEITU [55] tightly bound both NOS isoforms with high affinity but no selectivity. With the exception of the dipeptide-like 27 and the heterocyclic analog 35, which similarly interacted with both proteins, other compounds preferentially bound nNOSoxy over iNOSoxy with apparent affinities close to SEITU for this isoform.
Full-length recombinant rat nNOS, mouse iNOS, bovine eNOS, and the heme domains of rat brain nNOS and mouse iNOS were expressed in Escherichia coli and purified as described previously.
This study was performed as previously described.

bovine eNOS = biological target: T4, bovine eNOS (Bos taurus, UniProt P29473); test: NOS inhibition, oxyhemoglobin (hemoglobin capture) test, recombinant eNOS; type: biochemical; settings: dipeptide-like series; recombinant enzyme, 10 µM arginine, triplicate; NI = <50% inhibition at 100 μM; read-out: IC50 (μM) eNOS (Bovine)
T4 construct: Full-length recombinant rat nNOS, mouse iNOS, bovine eNOS; made in house; host or cells: Escherichia coli
T4 sequence (P29473 whole entry): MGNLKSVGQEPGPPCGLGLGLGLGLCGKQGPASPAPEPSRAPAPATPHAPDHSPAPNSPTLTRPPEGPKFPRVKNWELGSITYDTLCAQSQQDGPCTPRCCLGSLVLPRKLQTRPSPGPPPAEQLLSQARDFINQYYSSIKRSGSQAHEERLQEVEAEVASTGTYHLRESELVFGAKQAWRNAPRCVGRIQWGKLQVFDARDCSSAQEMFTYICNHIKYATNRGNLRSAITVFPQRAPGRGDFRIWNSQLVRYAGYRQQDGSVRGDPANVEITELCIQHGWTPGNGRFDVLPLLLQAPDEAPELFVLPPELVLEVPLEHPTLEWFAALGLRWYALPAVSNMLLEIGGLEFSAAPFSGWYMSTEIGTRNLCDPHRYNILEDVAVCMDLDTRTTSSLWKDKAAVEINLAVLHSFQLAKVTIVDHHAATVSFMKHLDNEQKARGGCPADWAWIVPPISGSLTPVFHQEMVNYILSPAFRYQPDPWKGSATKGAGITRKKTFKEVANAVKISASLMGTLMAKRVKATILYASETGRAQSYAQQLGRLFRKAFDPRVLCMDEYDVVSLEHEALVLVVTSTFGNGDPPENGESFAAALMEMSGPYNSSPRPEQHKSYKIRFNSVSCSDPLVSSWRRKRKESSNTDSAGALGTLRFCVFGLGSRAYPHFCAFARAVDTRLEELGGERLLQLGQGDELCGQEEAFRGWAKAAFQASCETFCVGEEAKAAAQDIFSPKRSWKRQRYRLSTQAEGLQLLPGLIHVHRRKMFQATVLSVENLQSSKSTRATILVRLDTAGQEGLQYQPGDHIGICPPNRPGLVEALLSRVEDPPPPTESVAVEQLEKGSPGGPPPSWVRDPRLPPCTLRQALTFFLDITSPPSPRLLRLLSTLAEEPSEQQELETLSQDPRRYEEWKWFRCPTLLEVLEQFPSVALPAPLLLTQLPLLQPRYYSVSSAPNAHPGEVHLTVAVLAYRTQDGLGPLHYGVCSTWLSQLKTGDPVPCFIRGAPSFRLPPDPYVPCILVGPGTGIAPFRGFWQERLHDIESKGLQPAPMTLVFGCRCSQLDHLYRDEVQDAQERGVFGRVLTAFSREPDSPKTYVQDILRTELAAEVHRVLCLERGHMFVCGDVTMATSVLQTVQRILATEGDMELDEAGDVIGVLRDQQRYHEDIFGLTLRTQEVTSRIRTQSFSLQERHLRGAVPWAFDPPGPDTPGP

T2 sequence (P29476 whole entry): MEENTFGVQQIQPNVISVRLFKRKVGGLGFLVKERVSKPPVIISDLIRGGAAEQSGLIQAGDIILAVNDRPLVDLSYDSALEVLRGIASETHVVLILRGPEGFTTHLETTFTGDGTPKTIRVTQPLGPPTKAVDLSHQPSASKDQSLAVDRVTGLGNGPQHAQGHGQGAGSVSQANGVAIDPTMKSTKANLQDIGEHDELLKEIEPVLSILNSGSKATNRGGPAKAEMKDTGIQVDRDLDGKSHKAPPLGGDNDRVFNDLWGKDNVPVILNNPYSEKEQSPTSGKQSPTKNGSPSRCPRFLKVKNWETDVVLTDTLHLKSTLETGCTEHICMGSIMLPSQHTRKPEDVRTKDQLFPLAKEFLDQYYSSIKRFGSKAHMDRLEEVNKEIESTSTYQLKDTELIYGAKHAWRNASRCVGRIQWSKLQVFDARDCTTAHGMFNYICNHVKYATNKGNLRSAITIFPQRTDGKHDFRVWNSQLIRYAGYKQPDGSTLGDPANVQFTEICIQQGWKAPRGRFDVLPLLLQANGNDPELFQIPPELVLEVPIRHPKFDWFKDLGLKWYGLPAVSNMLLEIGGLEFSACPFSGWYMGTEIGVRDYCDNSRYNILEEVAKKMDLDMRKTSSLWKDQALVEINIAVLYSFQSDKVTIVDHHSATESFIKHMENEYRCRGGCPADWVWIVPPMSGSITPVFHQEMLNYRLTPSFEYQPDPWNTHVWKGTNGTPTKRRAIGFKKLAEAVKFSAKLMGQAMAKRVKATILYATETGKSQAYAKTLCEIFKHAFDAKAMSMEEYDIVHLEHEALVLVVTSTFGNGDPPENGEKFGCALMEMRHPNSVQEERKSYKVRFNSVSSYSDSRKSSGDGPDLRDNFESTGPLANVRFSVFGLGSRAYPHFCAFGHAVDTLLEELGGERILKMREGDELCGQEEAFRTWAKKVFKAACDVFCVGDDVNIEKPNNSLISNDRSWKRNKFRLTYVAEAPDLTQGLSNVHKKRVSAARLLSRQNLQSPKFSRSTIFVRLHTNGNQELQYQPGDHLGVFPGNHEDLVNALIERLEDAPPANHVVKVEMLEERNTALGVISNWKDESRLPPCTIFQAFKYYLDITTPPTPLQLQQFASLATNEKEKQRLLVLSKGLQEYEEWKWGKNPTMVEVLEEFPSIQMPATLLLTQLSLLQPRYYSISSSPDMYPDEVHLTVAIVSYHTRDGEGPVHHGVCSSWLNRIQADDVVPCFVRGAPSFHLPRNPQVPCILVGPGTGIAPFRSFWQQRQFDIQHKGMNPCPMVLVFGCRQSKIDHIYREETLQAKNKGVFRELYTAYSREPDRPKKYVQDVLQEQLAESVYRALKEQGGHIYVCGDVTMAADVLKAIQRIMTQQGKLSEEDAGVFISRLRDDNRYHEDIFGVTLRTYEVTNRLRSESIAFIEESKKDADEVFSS
T3 sequence (P29476 1-720 limits assumed): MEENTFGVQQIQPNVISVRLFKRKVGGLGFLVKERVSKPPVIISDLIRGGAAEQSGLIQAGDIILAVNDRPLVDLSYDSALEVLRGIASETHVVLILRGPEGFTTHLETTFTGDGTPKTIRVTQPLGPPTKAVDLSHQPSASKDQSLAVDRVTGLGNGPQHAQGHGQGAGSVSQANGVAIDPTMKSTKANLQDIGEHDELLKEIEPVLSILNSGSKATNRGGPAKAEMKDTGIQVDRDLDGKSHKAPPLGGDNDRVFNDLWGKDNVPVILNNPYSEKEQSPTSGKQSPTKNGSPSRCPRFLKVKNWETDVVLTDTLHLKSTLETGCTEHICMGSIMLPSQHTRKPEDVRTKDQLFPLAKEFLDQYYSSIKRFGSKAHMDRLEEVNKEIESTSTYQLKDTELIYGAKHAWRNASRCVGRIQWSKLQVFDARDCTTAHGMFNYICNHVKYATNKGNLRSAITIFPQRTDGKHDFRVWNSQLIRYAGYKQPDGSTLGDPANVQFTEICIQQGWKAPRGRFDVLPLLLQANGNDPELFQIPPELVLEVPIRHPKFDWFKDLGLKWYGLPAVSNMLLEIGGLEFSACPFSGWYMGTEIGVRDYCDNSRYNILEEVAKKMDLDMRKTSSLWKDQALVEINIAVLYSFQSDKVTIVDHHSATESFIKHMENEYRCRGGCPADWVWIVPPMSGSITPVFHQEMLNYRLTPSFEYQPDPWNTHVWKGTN

| IC50 (mouse iNOS) [µM] | IC50 (rat nNOS) [µM] | Kd [1] [µM] | inhibition at 100 µM (bovine eNOS) [%] | inhibition at 100 µM (mouse iNOS; read-out: IC50 (μM) iNOS (Mouse)) [%] | Structure (SMILES) |
| --- | --- | --- | --- | --- | --- |
| 73.4 | 17.5 | 7.1 ± 2.6 | < 50 |  | CCSC(=N)NCCC[C@H](N)C(=O)N[C@H]1CCCN(Cc2ccccc2)C1 [Compound 7] |
| 12.9 | 5 | 3.6 ± 1.5 | < 50 |  | CCSC(=N)NCCC[C@H](N)C(=O)N[C@H]1CCCN(Cc2ccc(Cl)c(C(F)(F)F)c2)C1 [Compound 17] |
|  | 9.5 | 70.6 ± 22.8 | < 50 | < 50 | CCSC(=N)NCCC[C@H](N)C(=O)N[C@H]1CCCN(Cc2cccc(-c3cccc(C(=O)O)c3)c2)C1 [Compound 27] |

From article PMC10343299, “S-Ethyl-Isothiocitrullin-Based Dipeptides and 1,2,4-Oxadiazole Pseudo-Dipeptides: Solid Phase Synthesis and Evaluation as NO Synthase Inhibitors” (Molecules, 2023)
